Measurements: US11033577B2, “Polymer conjugate of hexa-coordinated platinum complex” (priority 2015, dated 2021)

How the values were obtained:
[1] = Maximum tolerable dose (MTD dose) in nude mice; assay type: in vivo, BALB/cA-nu/nu mouse; details: administered once, caudal vein, dose in terms of drug
Method: Human stomach cancer 4-1ST was collected subcutaneously from a nude mouse and was finely cut into blocks each measuring about 3 mm on each side. The tumor blocks thus obtained were subcutaneously transplanted into the dorsal side of nude mice using a trocar. On the 15th day after transplantation, where the average tumor volume had reached about 100 to 200 mm^3, various drugs were administered through the caudal vein. The use and dose (in terms of drug) of the various administered drugs are as follows. In regard to the Example 1 compound, the compound was dissolved in a 5% glucose injectable solution, and the solution was administered once at a dose of 25 mg/kg or 12.5 mg/kg. In regard to the Example 2 compound, the compound was dissolved in a 5% glucose injectable solution, and the solution was administered once at a dose of 25 mg/kg or 12.5 mg/kg. In regard to the Example 3 compound, the compound was dissolved in a 5% glucose injectable solution, and the solution was administered once at a dose of 20 mg/kg or 10 mg/kg. In regard to the Example 4 compound, the compound was dissolved in a 5% glucose injectable solution, and the solution was administered once at a dose of 20 mg/kg or 10 mg/kg. In regard to the Example 5 compound, the compound was dissolved in a 5% glucose injectable solution, and the solution was administered once at a dose of 20 mg/kg or 10 mg/kg. As a control drug, l-OHP was administered once at a dose of 20 mg/kg, and cisplatin was administered once at a dose of 10 mg/kg. Regarding the amounts of administration of l-OHP and cisplatin and the high amounts of administration of the various Example compounds, the maximum tolerable doses (MTD doses) were employed for all of the compounds. After the administration, the major axis (L) and the minor axis (W) of the tumor were measured over time using calipers, and the tumor volume (L×W×W×0.5) was calculated. The test was performed by employing four animals per group for all of a non-administered group as well as various drug-administered groups. During the period from the initiation of administration to the 21st day after administration, the relative tumor volume (T/C (%)) of each drug-administered group based on the relative tumor volume of a non-drug-administered group as 100 was calculated by the following formula as an index for the antitumor effect. T/C(%)=Relative tumor volume of administered group/relative tumor volume of non-administered group×100 Formula: […]
Human stomach cancer 4-1ST was collected subcutaneously from a nude mouse and was cut into blocks each measuring about 3 mm on each side. The tumor blocks thus obtained were transplanted subcutaneously on the dorsal side of nude mice using a trocar. On the 17th day after transplantation, where the average tumor volume had reached about 100 to 200 mm^3, various drugs were administered through the caudal vein. The use and dose (in terms of drug) of the various administered drugs are as follows. In regard to the Example 11 compound, the compound was dissolved in a 5% glucose injectable solution, and the solution was administered once at a dose of 15 mg/kg or 7.5 mg/kg. In regard to the Example 12 compound, the compound was dissolved in a 5% glucose injectable solution, and the solution was administered once at a dose of 30 mg/kg or 15 mg/kg. As a control drug, l-OHP was administered once at a dose of 18 mg/kg, and cisplatin was administered once at a dose of 10 mg/kg. Regarding the amounts of administration of l-OHP and cisplatin and the high amounts of administration of the various Example compounds, the maximum tolerable doses (MTD doses) were employed for all of the compounds. After the administration, the major axis (L) and the minor axis (W) of the tumor were measured over time using calipers, and the tumor volume (L×W×W×0.5) was calculated. The test was performed by employing four animals per group for all of a non-administered group as well as various drug-administered groups. […]

[2] = tested on: Human stomach cancer 4-1ST; test: Antitumor Test 3, human stomach cancer 4-1ST transplanted mouse; assay type: in vivo, BALB/cA-nu/nu mouse; details: caudal vein
From the text: Human stomach cancer 4-1ST was subcultured subcutaneously in a BALB/cA-nu/nu mouse (hereinafter, nude mouse). Human stomach cancer 4-1ST was obtained from the Central Institute for Experimental Animals.
Human stomach cancer 4-1ST was collected subcutaneously from a nude mouse and was cut into blocks each measuring about 3 mm on each side. The tumor blocks thus obtained were transplanted subcutaneously on the dorsal side of nude mice using a trocar. On the 20th day after transplantation, where the average tumor volume had reached about 100 to 200 mm^3, various drugs were administered through the caudal vein. The use and dose (in terms of drug) of the various administered drugs are as follows. In regard to the Example 7 compound, the compound was dissolved in a 5% glucose injectable solution, and the solution was administered once at a dose of 15 mg/kg or 7.5 mg/kg. In regard to the Example 16 compound, the compound was dissolved in a 5% glucose injectable solution, and the solution was administered once at a dose of 30 mg/kg or 15 mg/kg. As a control drug, l-OHP was administered once at a dose of 18 mg/kg or 9 mg/kg, and cisplatin was administered once at a dose of 10 mg/kg. Regarding the amounts of administration of l-OHP and cisplatin and the high amounts of administration of the various Example compounds, the maximum tolerable doses (MTD doses) were employed for all of the compounds. After the administration, the major axis (L) and the minor axis (W) of the tumor were measured over time using calipers, and the tumor volume (L×W×W×0.5) was calculated. The test was performed by employing four animals per group for all of a non-administered group as well as various drug-administered groups. During the period from the initiation of administration to the 21st day after administration, the relative tumor volume (T/C (%)) of each drug-administered group based on the relative tumor volume of a non-drug-administered group as 100 was calculated by the following formula as an index for the antitumor effect. T/C(%)=Relative tumor volume of administered group/relative tumor volume of non-administered group×100 Formula: […]

N.N.[Cl][Pt][Cl] [Cisplatin, cisplatin]
maximum tolerable dose (MTD dose) ([1]; Antitumor Test 1): 10 mg/kg | maximum tolerable dose (MTD dose) ([1]; Antitumor Test 2): 10 mg/kg | maximum tolerable dose (MTD dose) ([1]; Antitumor Test 3): 10 mg/kg | T/C (%) in various numbers of days after administration ([2]; 10 mg/kg once, day 0): 100% | T/C (%) in various numbers of days after administration ([2]; 10 mg/kg once, day 4): 47% | T/C (%) in various numbers of days after administration ([2]; 10 mg/kg once, day 7): 22% | T/C (%) in various numbers of days after administration ([2]; 10 mg/kg once, day 11): 17% | T/C (%) in various numbers of days after administration ([2]; 10 mg/kg once, day 14): 16% | T/C (%) in various numbers of days after administration ([2]; 10 mg/kg once, day 18): 20% | T/C (%) in various numbers of days after administration ([2]; 10 mg/kg once, day 21): 19%

O=C1[O][Pt]2([NH][C@@H]3CCCC[C@H]3[NH]2)[O]C1=O [l-OHP, oxaliplatin]
maximum tolerable dose (MTD dose) ([1]; Antitumor Test 1): 20 mg/kg | maximum tolerable dose (MTD dose) ([1]; Antitumor Test 2): 18 mg/kg | maximum tolerable dose (MTD dose) ([1]; Antitumor Test 3): 18 mg/kg | T/C (%) in various numbers of days after administration ([2]; 9 mg/kg once, day 0): 100% | T/C (%) in various numbers of days after administration ([2]; 9 mg/kg once, day 4): 81% | T/C (%) in various numbers of days after administration ([2]; 9 mg/kg once, day 7): 74% | T/C (%) in various numbers of days after administration ([2]; 9 mg/kg once, day 11): 75% | T/C (%) in various numbers of days after administration ([2]; 9 mg/kg once, day 14): 79% | T/C (%) in various numbers of days after administration ([2]; 9 mg/kg once, day 18): 77% | T/C (%) in various numbers of days after administration ([2]; 9 mg/kg once, day 21): 87% | T/C (%) in various numbers of days after administration ([2]; 18 mg/kg once, day 0): 100% | T/C (%) in various numbers of days after administration ([2]; 18 mg/kg once, day 4): 60% | T/C (%) in various numbers of days after administration ([2]; 18 mg/kg once, day 7): 37% | T/C (%) in various numbers of days after administration ([2]; 18 mg/kg once, day 11): 36% | T/C (%) in various numbers of days after administration ([2]; 18 mg/kg once, day 14): 47% | T/C (%) in various numbers of days after administration ([2]; 18 mg/kg once, day 18): 50% | T/C (%) in various numbers of days after administration ([2]; 18 mg/kg once, day 21): 52%
